The results in this text go back to US20240101972A1, “METHODS OF […]-[…] PRODUCTION” (priority 2021, published 2024).

Test [1] concerns C-terminal Auxin Inducible Degron containing Rep. The test can be described thus: AAV titer (qPCR) with Auxin Inducible Degron tagged Rep. The format is cell-based. To be noted: auxin and TIR1 all present (Sample 4), FIG. 14B. As for the experimental part: (§1) PEI pro transfection reagent (Polyplus), OptiMEM (Gibco) were used. […] These cell pellets were kept at −80 freezer.
(§2) Frozen harvested cells were thawed and sonicated. […] Then DNaseI treatment was performed for 15 minutes.

In test [2] the test system is FKBP degron tagged Rep proteins. The test can be described thus: AAV titer (qPCR) with FKBP degron tagged Rep. It counts as cell-based, human. As for the experimental part: as §1, §2
(§3) As depicted in FIGS. 12A-12D “RHM4-1” and “RHM4-1v2” are the plasmids that express both Rep proteins with no degrons and RHM4-1 Cap. In contrast, “p40Cap plasmid” only expresses RHM4-1 Capsid, while “pAAV2 Rep plasmid” expresses Rep proteins from AAV2. The ITR plasmid used in these studies has Gaussia Luciferase as transgene.

The test system of test [3] is Rep with C-terminal degron under the control of TRE3G promoter. The test can be described thus: AAV titer (qPCR) of Rep with C-terminal degron under TRE3G promoter control. The format is cell-based. As for the experimental part:
as §1, §2
(§4) In this study a Tet response element containing promoter (TRE3G) is cloned in front of the Rep gene as shown at FIG. 18A. This promoter can be activated in the presence of Tet proteins and doxycycline induction. Rep with C-terminal Degron under Tet Response Element promoter control is shown to be functional for AAV production regulation. Large Rep is under the control of Tet promoter and small Rep expression is provided by p19 promoter (Samples 1-5). […] Shield1 can upregulate small Rep expression (Sample 1 vs Sample 2) and large Rep expression (Sample 3 vs Sample 4). A separate plasmid is used for supplying Tet-On 3G transactivator protein where transactivator protein expression is under the control of ubiquitous CMV promoter (Samples 1-4). The amino acid sequence of the transactivator protein is: […]

Test [4] has as its system ecDHFR degron tagged Rep proteins.
Method: Expi293 cells were seeded 1.4E6 viable cells/mL in Expi293 media the day before transfection. Transfection was performed when the viable cells were between 2E6-3E6 cells/mL. PEI pro transfection reagent (Polyplus), OptiMEM (Gibco) were used. PEI:DNA ratio was 2 and 0.6 μg DNA per million cells was used. Triple transfections were performed with RHM4-1 Rep Cap, Helper and Gaussia luciferase plasmids. Split Rep and Cap plasmids were used in a ratio of 1:4 (Rep:Cap). In some cases split Rep Cap plasmids and TIR1 or CMV-Tet were used in a ratio of 1:3:1 (Rep:Cap:TIR1 or CMV-Tet). 1.5 mM SAHA was added after the addition of DNA-PEI complexes. In some cases next day Shield1 or TMP or Auxin and/or Doxycycline was added. For Doxycycline treated samples another treatment of Dox was performed 24 hr later than first treatment. Cells harvested at 4,8,24 hr post-treatment and 44 hr or 68 hr or 72 hr post-transfection; centrifuged and washed with cold PBS. These cell pellets were kept at −80 freezer.
Cell pellets were lysed with RIPA buffer (Pierce) including protease and phosphatase inhibitors and EDTA on ice for 30 minutes. Lysates were centrifuged max speed for 15 minutes and supernatant was transferred to a new Eppendorf tube and used for Western. Protein concentrations were measured with BCA kit (Pierce). 30 lag protein per lane loaded for SDS-PAGE gels. These gels were transferred to either PVDF or Nitrocellulose membrane. Membranes were blocked with blocking buffer (Li-Cor) for 30 minutes at room temperature. Anti-AAV Rep clone 303.9 (ARP, cat #03-61069) purified mouse monoclonal antibody was diluted 500 times in either blocking buffer (Li-Cor) or antibody diluent (Li-Cor). Membranes were incubated overnight in cold room either rocking or non-rocking. Next day membranes were washed 3 times 10 minutes each with 1×TBST buffer (Invitrogen). Goat anti-mouse Alexa Flour 680 secondary antibody was diluted 1000 times in either blocking buffer (Li-Cor) or antibody diluent (Li-Cor). Membranes were incubated at room temperature rocking for 45 minutes. […]
For test [5] the test system is unchanged. The source holds these as a separate data set.
Method: Expi293 cells were seeded 1.4E6 viable cells/mL in Expi293 media the day before transfection. Transfection was performed when the viable cells were between 2E6-3E6 cells/mL. PEI pro transfection reagent (Polyplus), OptiMEM (Gibco) were used. PEI:DNA ratio was 2 and 0.6 μg DNA per million cells was used. Triple transfections were performed with RHM4-1 Rep Cap, Helper and Gaussia luciferase plasmids. Split Rep and Cap plasmids were used in a ratio of 1:4 (Rep:Cap). In some cases split Rep Cap plasmids and TIR1 or CMV-Tet were used in a ratio of 1:3:1 (Rep:Cap:TIR1 or CMV-Tet). 1.5 mM SAHA was added after the addition of DNA-PEI complexes. In some cases next day Shield1 or TMP or Auxin and/or Doxycycline was added. For Doxycycline treated samples another treatment of Dox was performed 24 hr later than first treatment. Cells harvested at 4,8,24 hr post-treatment and 44 hr or 68 hr or 72 hr post-transfection; centrifuged and washed with cold PBS. These cell pellets were kept at −80 freezer. 1 mL of cells harvested 44 hr or 68 hr or 72 hr post-transfection for qPCR.
Frozen harvested cells were thawed and sonicated. 300 μL sonicated cells were treated with Benzonase for 1 hour at 37° C. incubator on a rotator/shaker. Then DNaseI treatment was performed for 15 minutes. Reaction was stopped with stop reagent (0.2% SDS/5 mM EDTA/0.2M NaCl), heated at 95° C. for 10 minutes and centrifuged. […]
Test [6] relates to Rep with C-terminal FKBP degron. The test can be described thus: rAAV production from Rep-degron constructs, read out by Huh7 transduction and luciferase. The format is cell-based, human. From the text:
Various constructs were designed for the development of mechanism for controllable Rep accumulation and higher rAAV production. Rep transgene was tagged at N-terminus or C-terminus with a destabilization domain (degron) to confer instability and target the translated Rep protein product to proteasome for degradation. The Rep protein degradation can be reversed by addition of the Shield1 ligand. The degron was modified from a human gene encoding FK506-binding protein 12 (“FKBP12”). It was previously shown that F36V modifications of the protein improves its specificity to Shield1 over FK506 (Clackson et al, PNAS 1998). […] The amino acid sequence of the degron that was used in the present example, referred to herein as “FKBP”, having a F36V and an L107P mutation, was:
Production of rAAV: Recombinant AAV were produced by transfection of human embryonic kidney (HEK293) cells grown in 6-well plates. The cells at 70-90% confluency were transfected with 3 μg of total DNA using jetOPTIMUS® DNA (PolyPlus)transfection reagent. The positive control rAAV produced with LK03 Rep/Cap plasmid were produced via triple transfection method. The plasmids were added in 1:1:1 ratio (1 helper: 1 ITR plasmid: 1 rep/cap plasmids). […]
Transduction of cells: Huh7 cells were transduced with equivalent volume of cell lysate or the cell media containing the AAV vectors. […] Transduction efficiency was assessed in biological duplicates or triplicates. Culture media was replaced the following day, and samples were analyzed for transgene expression 48-72 hours after transduction. For detection of Luciferase expression, Huh7 cells were lysed in passive lysis buffer (Promega) and each biological sample was divided and plated to four wells of 96-well luminescence assay plate. Renilla Luciferase levels were determined using the Renilla Luciferase Assay Kit (Promega) and analyzed in a microplate luminometer (Spectramax) fitted with injectors.
Shield1 was added to selected wells (FIG. 2). […] The Huh7 cells were then lysed and luciferase activity was measured for the detection of transgene activity.

In test [7] the test system is FKBP degron tagged Rep proteins. The test can be described thus: Western blot of FKBP degron tagged Rep proteins. It counts as cell-based, human. As for the experimental part: as §1
(§5) Protein concentrations were measured with BCA kit (Pierce). […] Membranes were scanned with Odyssey (Li-Cor).
as §3

Test [8] has as its target T1, Rep with C-terminal degron under the control of TRE3G promoter (Homo sapiens, UniProt P62942, F37V).
T1 construct: AAV Rep protein (fusion partner); expressed in transfected cells; host or cells: Expi293
The test can be described thus: Western blot of Rep with C-terminal degron under TRE3G promoter control. It counts as cell-based. As for the experimental part:
as §1, §5, §4

Where [9] appears, read: Rep constructs with C-terminal tagged degron, FIG. 15.

Structures are written as SMILES. Like-named read-outs stand apart in the source and are kept apart here.

T1 sequence (P62942 other isoform, or with tags, fused parts or gaps F37V): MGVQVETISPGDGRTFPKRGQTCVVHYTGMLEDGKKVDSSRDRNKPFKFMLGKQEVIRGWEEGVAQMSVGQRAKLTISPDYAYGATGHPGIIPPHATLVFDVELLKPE

`O=C(O)Cc1c[nH]c2ccccc12` [auxin]: the AAV production entry in test [1] is “undetectable”.
Regarding `CC[C@H](C(=O)N1CCCC[C@H]1C(=O)O[C@H](CCc1ccc(OC)c(OC)c1)c1ccccc1OCC(=O)NCCCCCCOc1cccc2c1C(=O)N(C1CCC(=O)NC1=O)C2=O)c1cc(OC)c(OC)c(OC)c1` (some centres unmarked) [dTag13], the “basal level of the AAV production” value in test [2] (setting [9]) was “did not decrease”.
Turning to `C[C@H]1c2cccc(O)c2C(=O)C2=C(O)[C@]3(O)C(=O)C(C(N)=O)=C(O)[C@@H](N(C)C)[C@@H]3[C@@H](O)[C@@H]21` [Doxycycline, doxycycline], the “increase of AAV production from the basal levels” value in test [3] (Doxycycline induction, FIG. 16B) was roughly 29 times.
With `COc1cc(Cc2cnc(N)nc2N)cc(OC)c1OC` [TMP, Trimethoprim], the “Small and large Rep expression” value in test [4] (C-ecDegron Rep, 5 μM TMP, FIG. 13B) was “more”; in test [4] (C-terminal tagged ecDHFR degron, Samples 7 and 8, FIG. 14A), “more”. The “large Rep expression” value in test [4] (N-ecDegron Rep, 5 μM TMP, 24 hour time point, FIG. 13A) is recorded as “higher”. In addition, the AAV titer entry in test [5] (C-terminal ecDHFR degron constructs, FIG. 13C) is reported as “increases”. Moreover, the AAV production entry in test [5] (ecDHFR degron tagged Reps, Sample 8 vs Sample 7 (undetectable without TMP), FIG. 14B) is given as “can produce AAV”.
As for `CC[C@H](C(=O)N1CCCC[C@H]1C(=O)O[C@H](CCc1ccc(OC)c(OC)c1)c1cccc(OCCN2CCOCC2)c1)c1cc(OC)c(OC)c(OC)c1` [Shield1], the rAAV production result in test [6] (Rep with C-terminally linked degron in the presence of both Cap and Shield1, FIG. 6) is reported as “significantly increased”. In test [6] (Shield1 addition, Rep-only plasmid C-terminal degron, HEK293, FIG. 4), the “rAAV production and transduction of the target cells” value is given as “rescued”. Also, in test [6] (of the wt Rep/Cap plasmid, Rep-only plasmid C-terminal degron with Shield1, FIG. 4), the transduction efficiency is 15-20%. Also, the “Small and large Rep expression” value in test [7] (C-degron Rep, 4, 8, 24 hour after Shield1 vs untreated, FIG. 12B) is on record as “higher”. Further, the “large Rep expression” value in test [7] (N-degron Rep, 4, 8, 24 hours after Shield1 vs untreated, FIG. 12A) was “increases”; in test [8] (Sample 3 vs Sample 4 (with doxycycline), FIG. 16A) it was “upregulate”; in test [8] (Shield1 added on top of doxycycline, Samples 4 and 8, FIG. 18B), “increased further”. The AAV titer result in test [2] (N- and C-terminal degron constructs vs untreated controls, FIG. 12C) is “increases AAV titer”; in test [3] (codon-modified Rep and small Rep under TRE3G and degron control, treated with Shield1 and Dox together, FIG. 20B), “higher”. Further, the “AAV production at different doses” value in test [2] (setting [9]) is reported as “more effective at 500 nM concentration”. For the same compound, in test [8] (Sample 1 vs Sample 2, FIG. 16A), the “small Rep expression” value is listed as “upregulate”. Moreover, the “Large and small Rep expression” value in test [8] (Samples 2, 4, 6, 8 vs 1, 3, 5, 7, FIG. 17A) is listed as “increased”.
